According to the NIST ThermoML archive (doi:10.1021/je030236t):

Tests used:
[1] = Molar enthalpy of transition or fusion; settings: Crystal; DSC
[2] = Liquid
[3] = molar enthalpy of vaporization or sublimation; settings: 298.15 K; Liquid

c1ccc(-c2cc(-c3ccccc3)cc(-c3ccccc3)c2)cc1 [1,3,5-triphenylbenzene]
Settings	Molar enthalpy of transition or fusion [kcal/mol]
[1]	7.43

CCCCCCCCCCCCCCCCCCCCCCCCCCCCCCCC [dotriacontane]
[2]
Settings	vapor or sublimation pressure [kPa]
298.15 K	3.62e-12
310 K	4.33e-11
320 K	2.95e-10
330 K	1.74e-09
340 K	8.99e-09
350 K	4.12e-08
360 K	1.69e-07
370 K	6.31e-07
380 K	2.14e-06
390 K	6.71e-06
400 K	1.95e-05
410 K	5.27e-05
420 K	0.000134
430 K	0.000321
440 K	0.000729
450 K	0.00158
460 K	0.00325
470 K	0.00643
480 K	0.0122
490 K	0.0224
500 K	0.0398
510 K	0.0684
520 K	0.114
530 K	0.185
540 K	0.294
550 K	0.454
560 K	0.687
570 K	1.02
580 K	1.48

Settings	molar enthalpy [kcal/mol]
[3]	38.8

CCCCCCCCCCCCCCCCCCCCCCCCCCCCCCC [hentriacontane]
[2]
Settings	vapor or sublimation pressure [kPa]
298.15 K	1.11e-11
310 K	1.23e-10
320 K	7.88e-10
330 K	4.39e-09
340 K	2.15e-08
350 K	9.39e-08
360 K	3.69e-07
370 K	1.32e-06
380 K	4.3e-06
390 K	1.3e-05
400 K	3.64e-05
410 K	9.56e-05
420 K	0.000236
430 K	0.00055
440 K	0.00122
450 K	0.00256
460 K	0.00517
470 K	0.01
480 K	0.0187
490 K	0.0336
500 K	0.0585
510 K	0.0989
520 K	0.163
530 K	0.26
540 K	0.406
550 K	0.619
560 K	0.925
570 K	1.35
580 K	1.95

Settings	molar enthalpy [kcal/mol]
[3]	37.6

CCCCCCCCCCCCCCCCCCCCCCCCCCCCCCCCCCCCC [heptatriacontane]
[2]
Settings	vapor or sublimation pressure [kPa]
298.15 K	1.49e-14
310 K	2.63e-13
320 K	2.43e-12
330 K	1.89e-11
340 K	1.26e-10
350 K	7.35e-10
360 K	3.77e-09
370 K	1.72e-08
380 K	7.09e-08
390 K	2.65e-07
400 K	9.09e-07
410 K	2.87e-06
420 K	8.43e-06
430 K	2.31e-05
440 K	5.96e-05
450 K	0.000145
460 K	0.000335
470 K	0.000735
480 K	0.00154
490 K	0.0031
500 K	0.006
510 K	0.0112
520 K	0.0202
530 K	0.0353
540 K	0.0598
550 K	0.0987
560 K	0.159
570 K	0.25
580 K	0.383

Settings	molar enthalpy [kcal/mol]
[3]	44.8

CCCCCCCCCCCCCCCCCCCCCCCCCCCCCCCCCCCC [hexatriacontane]
[2]
Settings	vapor or sublimation pressure [kPa]
298.15 K	4.51e-14
310 K	7.39e-13
320 K	6.41e-12
330 K	4.72e-11
340 K	3e-10
350 K	1.66e-09
360 K	8.16e-09
370 K	3.58e-08
380 K	1.42e-07
390 K	5.12e-07
400 K	1.7e-06
410 K	5.2e-06
420 K	1.48e-05
430 K	3.96e-05
440 K	9.96e-05
450 K	0.000237
460 K	0.000534
470 K	0.00115
480 K	0.00236
490 K	0.00467
500 K	0.00888
510 K	0.0163
520 K	0.0289
530 K	0.0498
540 K	0.0834
550 K	0.136
560 K	0.216
570 K	0.336
580 K	0.51

Settings	molar enthalpy [kcal/mol]
[3]	43.7
